SMILES | melting point
CC(=O)Nc1ccc(C#Cc2ccc(OC3CN4CCC3CC4)nn2)cc1 (racemic) [Compound C6, (±)-N-{4-[6-(1-Aza-bicyclo[2.2.2]oct-3-yloxy)-pyridazin-3-ylethynyl]-phenyl}-acetamide free base] | 169.5 to 175.4 °C
C(#Cc1ccc(OC2CN3CCC2CC3)cc1)c1ccccc1.O=C(O)/C=C/C(=O)O (racemic) | 126.9 to 127.3 °C

More lines, now with the values ahead:

melting point | SMILES
133.9 to 141.6 °C | C(#Cc1ccc(OC2CN3CCC2CC3)nn1)c1ccsc1.O=C(O)/C=C/C(=O)O (racemic) [Compound C10, (±)-3-(6-Thiophen-3-ylethynyl-pyridazin-3-yloxy)-1-aza-bicyclo[2.2.2]octane fumaric acid salt]
152.4 to 158.1 °C | Nc1cccc(C#Cc2ccc(OC3CN4CCC3CC4)nn2)c1 (racemic) [Compound C7, (±)-3-[6-(1-Aza-bicyclo[2.2.2]oct-3-yloxy)-pyridazin-3-ylethynyl]-phenylamine free base]
212 to 220 °C | Nc1ccc(C#Cc2ccc(OC3CN4CCC3CC4)nn2)cc1 (racemic) [Compound C8, (±)-4-[6-(1-Aza-bicyclo[2.2.2]oct-3-yloxy)-pyridazin-3-ylethynyl]-phenylamine free base]

Reference: patent US7652010B2 (priority 2004, dated 2010)
